Measured values: patent US20200215018A1, “Gold(I) And Platinum(II) With Isocyanide Ligand Complexes: Synthesis And Biological Activity” (BOARD OF TRUSTEES OF THE UNIVERSITY OF ARKANSAS, priority 2019, published 2020)
Where two headings read alike, the source gives them in different places.

Key:
breast carcinoma (MCF-7) = assay: In vitro cytotoxicity against MCF-7; assay type: cell-based, human
[1] = system: ovarian carcinoma (SKOV3); assay: In vitro cytotoxicity against SKOV3; assay type: cell-based, human
lung carcinoma (A549) = assay: In vitro cytotoxicity against A549
[2] = system: MCF-10A; normal human epithelial breast cell line; assay: Proliferation of non-tumoral cell line MCF-10A; assay type: cell-based; details: Table 3, non-cancerous cell line; read-out: (IC50 ± SD) μM MCF-10A
Procedure: In addition, to verify the selectivity between cancer and normal cell line, the effects of these compounds on the proliferation of non-tumoral cell line (MCF-10A; normal human epithelial breast cell line) were also determined. […] In order to gain some more insight in the structure-activity relationship of the synthesized trans-Pt(II) complexes, the chemical descriptors of them such as surface area, volume, hydration energy, logP (measure of lipophilicity), refractivity (measuring the total polarizability of a mole of a compound), polarizability and mass were calculated using Hyperchem 8 software. The greater logP (lipophilicity) of complex 3a confirmed the importance of this descriptors for the cytotoxic activity of the trans-Pt(II) complexes.

SKOV3 cells = assay: Intracellular ROS determination by flow cytometry (DCFH-DA); assay type: cell-based, human; details: SKOV3, 10, 20, 40 μM
Procedure: Changes in ROS levels were expressed as a ratio of the mean fluorescence intensity (MFI) in each condition divided by the basal intensity of the ROS at the untreated cells (negative controls, MFI0).
Flow cytometry was used for determination of cellular reactive oxygen species (ROS) in SKOV3 cell line after treatment with complex 3a. In this highly sensitive method, to consider ROS formation, SKOV3 cells were treated with complex 3a and H2O2 (positive control) and stained with 2′,7′-Dichlorodihydrofluorescein diacetate (DCFH-DA), a cell-permanent non-fluorescent dye which is oxidized by cellular ROS and produce 2′,7′-dichlorofluorescein (DCF) fluorescent component. The intensity of DCF is a direct estimate of the amount of ROS within the cells.

pCDNA plasmid = assay: Electrophoresis mobility shift assay, pCDNA plasmid; assay type: binding; details: 100 to 800 uM, 24 h and 48 h
Procedure: FIG. 5 illustrates an electrophoresis mobility shift assay for platinum compounds for an embodiment of the present invention. A pCDNA plasmid in the circular form was incubated with cisplatin, 1b, and 2a at different concentrations for 24 h (A) and 48 h (B).
Electrophoresis mobility shift assay is a common method that is applied to show the interaction of compounds with DNA. […] The shift was more notable with an increase in the concentrations from 100 to 800 uM, especially in the case of complex 2a; however, this compound at a higher concentration seemed to interact with the KBC loading dye and was trapped in the wells.

MCF-7 cells [3] = details: for percentages of apoptotic cells (Annexin V+ cells): 48 hours incubation; for living cells (Annexin V−/7-AAD− cells): 48 hours; for percentage of the cells in early apoptotic phase: 48 h
Procedure: Representative scatter plots show apoptosis of MCF-7 cells after 48 hours of incubation with different concentrations of (20, 40, and 80 mM) using the Annexin V-PE/7AAD detection kit. The percentages of apoptotic cells (Q2: late apoptotic and Q3: early apoptotic) were determined in Annexin V cells. Q1: necrotic cells, Q2: late apoptotic cells, Q3: early apoptotic cells, and Q4: living cells.

pGEM-FT plasmid = assay: Electrophoresis mobility shift assay, pGEM-FT plasmid; assay type: binding; details: 24 h, compared to cisplatin positive control
Procedure: FIG. 10 is a mobility shift assay of 1a compound. pGEM-FT plasmid in circular form was incubated with different concentrations of cisplatin (positive controls) as well as compound 1a for 24 h for additional embodiments of the present invention.
Here, comet assay was used as a valuable method to predict the genotoxic effect of new synthesized trans-Pt(II) complexes on cancerous cells. In this single cell microgel electrophoresis method, following the DNA damage, the migration of chromosomal DNA from the nucleus increases and resembles the shape of a tail or comet. The longer tails display the more genotoxicity, while untreated cells as un-fragmented cells, represent a little or no tail. […] It could also be seen that compared to the untreated control, complex 3a could make a nick in DNA and subsequently slightly shift the mobility of the plasmid in a dose dependent manner. These observations confirm the direct interaction of complex 3a with DNA through genotoxic effect as observed in comet assay.
(§1) This is also effected by differences in the concentrations of complex 3a in comparison to untreated cells (negative control). pGEM-FT plasmid in circular form was incubated with different concentrations of cisplatin (positive controls) as well as complex 3a for 24 h.

MCF-7 cells [4] = assay: Comet assay (genotoxicity); assay type: cell-based, human
Description: Here, comet assay was used as a valuable method to predict the genotoxic effect of new synthesized trans-Pt(II) complexes on cancerous cells. In this single cell microgel electrophoresis method, following the DNA damage, the migration of chromosomal DNA from the nucleus increases and resembles the shape of a tail or comet. The longer tails display the more genotoxicity, while untreated cells as un-fragmented cells, represent a little or no tail.
as §1

MCF-7 cells [5] = details: MCF-7, compared to untreated cells
Description: Quantitation of DNA content using flow cytometry or cell cycle analysis, is a basic method which is commonly used to assess the mechanisms of antiproliferative effects of anticancer drugs. In this method, a fluorescent DNA binding dye (in the present study: propidium iodide, PI) is used to stain DNA and measure the amount of DNA present in the cell. The cells in the G2 phase are expected to absorb approximately twice the amount of color compared to the cells in G1 as their DNA content has been doubled during S phase. Therefore, the cells in S phase have more DNA than G1 cells but less than G2 ones.

[6] = Table 1, Pt(II) isocyanide series 1a-c, 2a-c, read-out: IC50 (μM ± SD) MCF-7
[7] = Table 3, trans-Pt(II) thiolate series A, 3a-e, read-out: (IC50 ± SD) μM MCF-7
[8] = gold(I) complex study, read-out: IC50 MCF-7
[9] = Table 1, Pt(II) isocyanide series 1a-c, 2a-c, read-out: IC50 (μM ± SD) SKOV3
[10] = Table 3, trans-Pt(II) thiolate series A, 3a-e, read-out: (IC50 ± SD) μM SKOV3
[11] = gold(I) complex study, read-out: IC50 SKOV3
[12] = read-out: (IC50 ± SD) μM A549, Table 3, trans-Pt(II) thiolate series A, 3a-e and ligands
[13] = read-out: IC50 (μM ± SD) A549, Table 1, Pt(II) isocyanide series 1a-c, 2a-c
[14] = read-out: IC50 A549, gold(I) complex study
[15] = Homo sapiens, A549, read-out: (IC50 ± SD) μM A549

## N.N.[Cl][Pt][Cl] [Cisplatin, reference compound]
Breast carcinoma (MCF-7); [6]
  IC50: 13.4 µM
Breast carcinoma (MCF-7); [7]
  IC50: 11.6 µM
Breast carcinoma (MCF-7); [8]
  IC50: 11.5 µM
[1]; [9]
  IC50: 14.6 ± 1.3 µM
[1]; [10]
  IC50: 14.5 µM
[1]; [11]
  IC50: 12.4 µM
Lung carcinoma (A549); [12]
  IC50: 9.71 µM
Lung carcinoma (A549); [13]
  IC50: 6.68 ± 0.72 µM
Lung carcinoma (A549); [14]
  IC50: 7.62 µM
[2]
  IC50: 29.5 ± 1.03 µM

## OO [H2O2, reference compound]
SKOV3 cells
  ROS production (MFI/MFI0): induce ROS production within 20 minutes

## C=CCP(c1ccccc1)c1ccccc1 [PPh2allyl, allyldiphenylphosphine]
Lung carcinoma (A549); [15]
  IC50: > 100 µM

## Sc1nc2ccccc2[nH]1 [Sbi, benzimidazole-2-thiol]
Lung carcinoma (A549); [15]
  IC50: > 100 µM

## Sc1nc2ccccc2s1 [Sbt, benzothiazole-2-thiol]
Lung carcinoma (A549); [15]
  IC50: > 100 µM

## Sc1ccccn1 [Spy, pyridine-2-thiol]
Lung carcinoma (A549); [15]
  IC50: > 100 µM

## FC(F)(F)c1ccc(S)nc1 [Spy-5-CF3, 5-(trifluoromethyl)-pyridine-2-thiol]
Lung carcinoma (A549); [15]
  IC50: > 100 µM

## Sc1ncccn1 [SpyN, pyrimidine-2-thiol]
Lung carcinoma (A549); [15]
  IC50: > 100 µM

## [CH3][Pt-2]([CH3])([C]#[N+]Cc1ccccc1)[C]#[N+]Cc1ccccc1 [complex 1b, [Me2Pt(CNR)2] (R=benzyl)]
Breast carcinoma (MCF-7); [6]
  IC50: 12.5 µM
[1]; [9]
  IC50: 15.9 ± 1.25 µM
Lung carcinoma (A549); [13]
  IC50: 21.4 ± 2.18 µM
pCDNA plasmid
  shift in the mobility of the plasmid: obvious shift in the mobility of the plasmid
MCF-7 cells [3]; 80 uM
  percentages of apoptotic cells (Annexin V+ cells): 77.22%
MCF-7 cells [3]
  percentages of apoptotic cells (Annexin V+ cells): 27.36%
MCF-7 cells [3]; highest concentration (80)
  living cells (Annexin V−/7-AAD− cells): 15.3%
MCF-7 cells [3]; lowest concentration (20)
  living cells (Annexin V−/7-AAD− cells): 72.1%

## [CH3][Pt-2]([CH3])([C]#[N+]C1CCCCC1)[C]#[N+]C1CCCCC1 [complex 1c, [Me2Pt(CNR)2] (R=cyclohexyl)]
Breast carcinoma (MCF-7); [6]
  IC50: 68.3 ± 3.21 µM
[1]; [9]
  IC50: 44.6 ± 1.17 µM
Lung carcinoma (A549); [13]
  IC50: 50.8 ± 1.64 µM

## [C](#[N+]Cc1ccccc1)[Au-][S]c1ncccn1 [complex 2]
Breast carcinoma (MCF-7); [8]
  IC50: 6.14 µM
[1]; [11]
  IC50: 6.26 µM
Lung carcinoma (A549); [14]
  IC50: 7.8 µM
MCF-7 cells [3]; gold(I) complex study, MCF-7
  induction of cellular apoptosis: induces apoptosis in cancerous cells in a dose-dependent manner

## Cc1cc[c]([Pt-2]([C]#[N+]C(C)(C)C)([C]#[N+]C(C)(C)C)[c]2ccc(C)cc2)cc1 [complex 2a, [(p-tolyl)2Pt(CNR)2] (R=t-butyl)]
Breast carcinoma (MCF-7); [6]
  IC50: 11.1 ± 0.59 µM
[1]; [9]
  IC50: 18.5 ± 2.38 µM
Lung carcinoma (A549); [13]
  IC50: 19.2 ± 2.59 µM
pCDNA plasmid
  shift in the mobility of the plasmid: obvious shift in the mobility of the plasmid

## Cc1cc[c]([Pt-2]([C]#[N+]Cc2ccccc2)([C]#[N+]Cc2ccccc2)[c]2ccc(C)cc2)cc1 [complex 2b, [(p-tolyl)2(CNR)2] (R=benzyl)]
Breast carcinoma (MCF-7); [6]
  IC50: 62.3 ± 1.67 µM
[1]; [9]
  IC50: 55.3 ± 2.19 µM
Lung carcinoma (A549); [13]
  IC50: 31.2 ± 2.27 µM

## Cc1cc[c]([Pt-2]([C]#[N+]C2CCCCC2)([C]#[N+]C2CCCCC2)[c]2ccc(C)cc2)cc1 [complex 2c, [(p-tolyl)2(CNR)2] (R=cyclohexyl)]
Breast carcinoma (MCF-7); [6]
  IC50: 72.4 ± 2.32 µM
[1]; [9]
  IC50: 67.1 ± 1.54 µM
Lung carcinoma (A549); [13]
  IC50: 44.3 ± 1.38 µM

## C=CC[P+](c1ccccc1)(c1ccccc1)[Pt-2]([S]c1ccccn1)([S]c1ccccn1)[P+](CC=C)(c1ccccc1)c1ccccc1 [complex 3a, trans-[Pt(PPh2allyl)2(κ^1—S—SR)2]]
pGEM-FT plasmid
  shift in the mobility of the plasmid: a little shift
MCF-7 cells [4]; MCF-7, 10 and 50 μM
  genotoxic effect (comet tail): strong genotoxic ability
Breast carcinoma (MCF-7); [7]
  IC50: 4.8 µM
[1]; [10]
  IC50: 6.23 µM
SKOV3 cells
  ROS production (MFI/MFI0): moderately induce ROS
Lung carcinoma (A549); [12]
  IC50: 4.31 µM
MCF-7 cells [5]
  effect on the cell cycle: no clear effect
[2]
  IC50: 38.4 ± 2.06 µM
MCF-7 cells [3]; 2.5 μM
  percentage of the cells in early apoptotic phase: 11.0%
MCF-7 cells [3]; 5 μM
  percentage of the cells in early apoptotic phase: 40.8%
MCF-7 cells [3]; 10 μM
  percentage of the cells in early apoptotic phase: 62.9%

## C=CC[P+](c1ccccc1)(c1ccccc1)[Pt-2]([Cl])([Cl])[P+](CC=C)(c1ccccc1)c1ccccc1 [complex A, cis-[Pt(PPh2allyl)2Cl2]]
Breast carcinoma (MCF-7); [7]
  IC50: 19 ± 1.24 µM
[1]; [10]
  IC50: 34.5 ± 1.53 µM
Lung carcinoma (A549); [12]
  IC50: 22.5 ± 1.62 µM
[2]
  IC50: 68.7 ± 1.21 µM

## COc1cccc2c1C(=O)c1c(O)c3c(c(O)c1C2=O)C[C@@](O)(C(=O)CO)C[C@@H]3O[C@H]1C[C@H](N)[C@H](O)[C@H](C)O1 [doxorubicin, reference compound]
MCF-7 cells [4]; MCF-7, positive control, vs untreated cells
  percentage of degraded DNA in the tail: remarkably increased
